The values below come from PMC11173536, “2-Aryladenine Derivatives as a Potent Scaffold for Adenosine Receptor Antagonists: The 6-Morpholino Derivatives” (Molecules, 2024).

Test [1] addresses T1, human A1 adenosine receptor (Homo sapiens, UniProt P30542).
T1 construct: gene ADORA1; full-length receptor
T1 sequence (P30542 1-326): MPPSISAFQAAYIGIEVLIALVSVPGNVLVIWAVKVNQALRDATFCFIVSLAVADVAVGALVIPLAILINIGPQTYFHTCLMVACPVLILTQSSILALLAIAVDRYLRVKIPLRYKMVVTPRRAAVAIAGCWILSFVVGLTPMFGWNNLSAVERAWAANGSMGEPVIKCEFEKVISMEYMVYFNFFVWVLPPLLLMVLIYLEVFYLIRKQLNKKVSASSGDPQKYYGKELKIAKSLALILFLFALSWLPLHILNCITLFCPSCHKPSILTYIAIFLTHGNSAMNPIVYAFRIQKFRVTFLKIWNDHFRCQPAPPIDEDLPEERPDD
Put plainly: radioligand competition, [3H]DPCPX, CHO-A1 membranes. It counts as binding. An excerpt:
radioligand competition, [3H]DPCPX, CHO-A1 membranes on human A1 adenosine receptor
(Loss of bound radioactivity is the signal in a displacement assay; it reports binding, not function.)

Test [2] has as its target T2, human A2B adenosine receptor (Homo sapiens, UniProt P29275).
T2 construct: gene ADORA2B; full-length receptor; membranes of HEK-293-A2B cells (Euroscreen)
T2 sequence (P29275 1-332): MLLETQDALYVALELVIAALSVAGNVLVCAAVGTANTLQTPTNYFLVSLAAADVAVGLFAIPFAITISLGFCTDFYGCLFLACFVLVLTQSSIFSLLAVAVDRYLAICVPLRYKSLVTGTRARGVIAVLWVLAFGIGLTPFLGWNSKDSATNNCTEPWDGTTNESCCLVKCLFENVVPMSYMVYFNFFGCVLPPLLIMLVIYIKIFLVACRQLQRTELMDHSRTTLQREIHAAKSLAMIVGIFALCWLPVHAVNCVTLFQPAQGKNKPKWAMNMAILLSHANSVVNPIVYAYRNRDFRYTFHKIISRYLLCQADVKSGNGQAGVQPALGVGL
The experiment in a line: radioligand competition, [3H]DPCPX, HEK-293-A2B membranes. Format: binding. An excerpt:
radioligand competition, [3H]DPCPX, HEK-293-A2B membranes on human A2B adenosine receptor

For test [3], the target named is T3, human A2A adenosine receptor (Homo sapiens, UniProt P29274).
T3 construct: gene ADORA2A; full-length receptor; membranes of HeLa-A2A cells
The experiment in a line: radioligand competition, [3H]ZM241385, HeLa-A2A membranes. Format: binding. An excerpt:
radioligand competition, [3H]ZM241385, HeLa-A2A membranes on human A2A adenosine receptor

In test [4] the target is T1, human A1 adenosine receptor. Put plainly: radioligand competition, [3H]DPCPX, CHO-A1 membranes. It counts as binding. The source holds these as a separate data set.
Test [5] addresses T4, human A3 adenosine receptor (Homo sapiens, UniProt P0DMS8).
T4 construct: gene ADORA3; full-length receptor
T4 sequence (P0DMS8 1-318): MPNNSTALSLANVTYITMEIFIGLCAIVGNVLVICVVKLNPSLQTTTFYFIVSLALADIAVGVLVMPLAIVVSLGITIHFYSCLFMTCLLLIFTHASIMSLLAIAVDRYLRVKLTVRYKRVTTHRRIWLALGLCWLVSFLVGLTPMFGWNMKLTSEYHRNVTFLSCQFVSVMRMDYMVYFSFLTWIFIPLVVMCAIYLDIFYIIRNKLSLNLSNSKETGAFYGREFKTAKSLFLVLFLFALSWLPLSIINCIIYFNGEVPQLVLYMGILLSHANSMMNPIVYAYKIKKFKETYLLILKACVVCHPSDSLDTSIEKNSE
The experiment in a line: radioligand competition, [3H]NECA, HeLa-A3 membranes. Format: binding. An excerpt: radioligand competition, [3H]NECA, HeLa-A3 membranes on human A3 adenosine receptor

The target of test [6] is T4, human A3 adenosine receptor. The experiment in a line: cAMP enzyme immunoassay, antagonism of NECA, CHO-A3 cells. Format: cell-based. To be noted: read-out: Potency (pKB) / A3 (converted). An excerpt: cAMP enzyme immunoassay, antagonism of NECA, CHO-A3 cells on human A3 adenosine receptor
Test [7] has as its target T1, human A1 adenosine receptor. Put plainly: cAMP enzyme immunoassay, antagonism of NECA, CHO-A1 cells. Format: cell-based. To be noted: read-out: Potency (pKB) / A1 (converted). An excerpt: cAMP enzyme immunoassay, antagonism of NECA, CHO-A1 cells on human A1 adenosine receptor

Read-outs that look alike come from different tables or passages of the source. Bounds are passed on as bounds.

T3 sequence (P29274 whole entry): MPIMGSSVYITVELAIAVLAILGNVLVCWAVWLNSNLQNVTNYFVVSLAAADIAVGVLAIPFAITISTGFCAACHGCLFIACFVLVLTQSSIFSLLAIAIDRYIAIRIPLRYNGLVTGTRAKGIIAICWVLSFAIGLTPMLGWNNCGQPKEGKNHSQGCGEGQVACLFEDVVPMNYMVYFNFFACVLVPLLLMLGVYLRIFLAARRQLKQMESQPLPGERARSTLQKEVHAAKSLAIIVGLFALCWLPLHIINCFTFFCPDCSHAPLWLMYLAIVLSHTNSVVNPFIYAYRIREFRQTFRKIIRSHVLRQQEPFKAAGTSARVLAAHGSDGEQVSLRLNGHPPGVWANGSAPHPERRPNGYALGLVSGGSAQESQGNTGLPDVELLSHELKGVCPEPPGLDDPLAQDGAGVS

The compound `Cn1cnc2c(N3CCOCC3)nc(-c3ccccc3Cl)nc21` [3a, 4-(2-(2-Chlorophenyl)-9-methyl-9H-purin-6-yl)morpholine] had an inhibition at 10 µM in test [1] of 36 ± 1%.

In test [1], `COc1ccccc1-c1nc(N2CCOCC2)c2ncn(C)c2n1` [3b, 4-(2-(2-Methoxyphenyl)-9-methyl-9H-purin-6-yl)morpholine] came in with an inhibition at 10 µM of 22 ± 1%.

For the compound `Cn1cnc2c(N3CCOCC3)nc(-c3ccccc3O)nc21` [3c, 2-(9-Methyl-6-morpholino-9H-purin-2-yl)phenol], the Ki in test [2] was 2000 nM; in test [3], 339 nM; in test [4] (read-out: A1 (converted)) it was 309 nM.

Consider `Cn1cnc2c(N3CCOCC3)nc(-c3cccc(Cl)c3)nc21` [3d, 4-(2-(3-Chlorophenyl)-9-methyl-9H-purin-6-yl)morpholine], for which the Ki in test [4] (read-out: A1 (converted)) is 158 nM.

With `Cn1cnc2c(N3CCOCC3)nc(-c3cccc(O)c3)nc21` [3e, 3-(9-Methyl-6-morpholino-9H-purin-2-yl)phenol], in test [4] (read-out: A1 (converted)), the Ki is 692 nM.

With `Cn1cnc2c(N3CCOCC3)nc(-c3ccc(Cl)cc3)nc21` [3f, 4-(2-(4-Chlorophenyl)-9-methyl-9H-purin-6-yl)morpholine], the inhibition at 10 µM in test [1] turned out to be 37 ± 4%.

In test [1], `Cn1cnc2c(N3CCOCC3)nc(-c3cccc(O)c3O)nc21` [3g, 3-(9-Methyl-6-morpholino-9H-purin-2-yl)benzene-1,2-diol] showed an inhibition at 10 µM of 33 ± 0.3%.

As for `Cn1cnc2c(N3CCOCC3)nc(-c3cc(Cl)ccc3Cl)nc21` [3h, 4-(2-(2,5-Dichlorophenyl)-9-methyl-9H-purin-6-yl)morpholine], in test [1], the inhibition at 10 µM came out at 41 ± 2%.

As for `Cn1cnc2c(N3CCOCC3)nc(-c3cc(O)ccc3O)nc21` [3i, 2-(9-Methyl-6-morpholino-9H-purin-2-yl)benzene-1,4-diol], the Ki in test [2] was 479 nM; in test [3], 562 nM; in test [4] (read-out: A1 (converted)), 437 nM.

As for `COc1ccc(O)c(-c2nc(N3CCOCC3)c3ncn(C)c3n2)c1` [3j, 4-Methoxy-2-(9-methyl-6-morpholino-9H-purin-2-yl)phenol], the Ki in test [2] was 1660 nM; in test [3], 1230 nM; in test [4] (read-out: A1 (converted)), 525 nM.

In the case of `Cn1cnc2c(N3CCOCC3)nc(-c3cc(Cl)ccc3O)nc21` [3k, 4-Chloro-2-(9-methyl-6-morpholino-9H-purin-2-yl)phenol], the Ki in test [3] was 708 nM; in test [4] (read-out: A1 (converted)), 123 nM.

For `COc1ccc(F)c(-c2nc(N3CCOCC3)c3ncn(C)c3n2)c1` [3l, 4-(2-(2-Fluoro-5-methoxyphenyl)-9-methyl-9H-purin-6-yl)morpholine], the Ki in test [5] was 5250 nM.

For the compound `Cn1cnc2c(N3CCOCC3)nc(-c3cc(F)ccc3F)nc21` [3m, 4-(2-(2,5-Difluorophenyl)-9-methyl-9H-purin-6-yl)morpholine], in test [4] (read-out: A1 (converted)), the Ki was 525 nM.

Take `Oc1ccccc1-c1nc(N2CCOCC2)c2nc[nH]c2n1` [3n, 2-(6-Morpholino-9H-purin-2-yl)phenol]: the Ki in test [2] is 138 nM; in test [3] it was 107 nM; in test [4] (read-out: A1 (converted)), 64.6 nM; in test [5], 257 nM.

Take `Clc1cccc(-c2nc(N3CCOCC3)c3nc[nH]c3n2)c1` [3o, 4-(2-(3-Chlorophenyl)-9H-purin-6-yl)morpholine]: the Ki in test [2] was 75.9 nM; in test [3], 46.8 nM; in test [4] (read-out: A1 (converted)), 17.8 nM; in test [5] it was 39.8 nM.

In the case of `Oc1cccc(-c2nc(N3CCOCC3)c3nc[nH]c3n2)c1` [3p, 3-(6-Morpholino-9H-purin-2-yl)phenol], the results for the Ki in test [3], in test [4] (read-out: A1 (converted)) and in test [5] were 550 nM, 32.4 nM and 468 nM, respectively.

For `Clc1ccc(-c2nc(N3CCOCC3)c3nc[nH]c3n2)cc1` [3q, 4-(2-(4-Chlorophenyl)-9H-purin-6-yl)morpholine], the Ki in test [4] (read-out: A1 (converted)) is 95.5 nM; in test [5] it was 33.9 nM.

Regarding `Clc1ccc(-c2nc(N3CCOCC3)c3nc[nH]c3n2)cc1Cl` [3r, 4-(2-(3,4-Dichlorophenyl)-9H-purin-6-yl)morpholine], the Ki in test [5] worked out at 70.8 nM.

With `FC(F)(F)c1cc(-c2nc(N3CCOCC3)c3nc[nH]c3n2)ccc1Cl` [3s, 4-(2-(4-Chloro-3-(trifluoromethyl)phenyl)-9H-purin-6-yl)morpholine], in test [5], the Ki is 955 nM.

As for `Clc1ccc(Cl)c(-c2nc(N3CCOCC3)c3nc[nH]c3n2)c1` [3t, 4-(2-(2,5-Dichlorophenyl)-9H-purin-6-yl)morpholine], the Ki in test [4] (read-out: A1 (converted)) was 1070 nM; in test [5] it was 69.2 nM.

For the compound `Oc1ccc(Cl)cc1-c1nc(N2CCOCC2)c2nc[nH]c2n1` [3u], the Ki was 617 nM in test [2] and 89.1 nM in test [4] (read-out: A1 (converted)).

As for `COc1ccc(F)c(-c2nc(N3CCOCC3)c3nc[nH]c3n2)c1` [3v, 4-(2-(2-Fluoro-5-methoxyphenyl)-9H-purin-6-yl)morpholine], the Ki was 398 nM in test [2], more than 10000 nM in test [4] (read-out: pKi (converted)) and 14.8 nM in test [5]. For the same compound, the Kb in test [6] was 5.75 nM.

Regarding `Fc1ccc(F)c(-c2nc(N3CCOCC3)c3nc[nH]c3n2)c1` [3x, 4-(2-(2,5-Difluorophenyl)-9H-purin-6-yl)morpholine], the Kb in test [7] is 5.62 nM. For the same compound, the Ki was 36.3 nM in test [2], 70.8 nM in test [3], 5.89 nM in test [4] (read-out: A1 (converted)) and 23.4 nM in test [5].

One may read the inhibition as the change of the read-out against control, counted positive when it falls. Lower therefore signals little suppression.
